Assay results published in article PMC12670426 (Journal of Medicinal Chemistry, 2025).
Where two headings read alike, the source gives them in different places.

Key:
Cytotoxicity assay, LX2 = format: cell-based; conditions: human, LX2 cells, viability dye, flow cytometry
Description: (§1) To evaluate in vitro cytotoxicity and support its potential application in inflammatory and fibrotic disease models, the following panel of cell lines, representing the relevant biological systems, was used: HEK293, HepG2, THP1, Jurkat E6.1, and LX2. HEK293, HepG2, and Jurkat E6.1 cells were seeded at 400,000 cells/mL, THP1 cells at 500,000 cells/mL, and LX2 cells at 200,000 cells/mL in 96-well plates (cell culture-treated, VWR) in 100 μL/well. Cells were treated with the tested compounds in a serial dilution (300, 100, 33.3, 11.1, and 3.7 μM) for 24 h. Untreated cells served as negative controls to establish the baseline viability threshold. Cell viability was assessed using a viability dye (Zombie Violet Fixable Viability Kit, BioLegend) following the manufacturer’s instructions and analyzed by flow cytometry (see below).
(§2) Cells or beads from screening assays prepared for flow cytometry were analyzed by the CytoFlex S instrument (Beckman Coulter). Data acquisition was performed using CytExpert software (v2.5, Beckman Coulter). Debris was excluded by forward and side scatter gating, followed by doublet exclusion. Data were analyzed using FlowJo software (v10, BD Biosciences).

[1] = biological target: T1, human galectin-3C (Gal-3C, C-terminal CRD of galectin-3) (Homo sapiens, UniProt P17931); test: Competitive fluorescence polarization assay, Gal-3C; format: binding
T1 construct: only the C-terminal domain was used (Gal-3C); 6xHis tag with TEV protease site (N, cleaved yes); made in house; host or cells: BL21 Escherichia coli (pET-15b)
T1 sequence (P17931 118-248 limits assumed): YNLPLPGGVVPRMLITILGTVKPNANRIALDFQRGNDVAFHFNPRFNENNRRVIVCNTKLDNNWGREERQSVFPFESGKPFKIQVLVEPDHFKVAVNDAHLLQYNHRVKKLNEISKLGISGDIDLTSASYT
How it was run: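 Competitive fluorescence polarization (anisotropy) with a fluorescent probe; full-length Gal-1 and C-terminal CRD construct of Gal-3. Read after 30–60 min incubation at 25 °C. Kd fitted with Wang's exact cubic competitive model, rmin/rmax fixed from direct binding.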

[2] = Plasma protein binding assay (rapid equilibrium dialysis), rat plasma; format: in vitro ADME; conditions: fraction bound, read-out: plasma protein binding Fb rat (converted)
Description: Test compound (10 μM) was incubated at 37 °C for 4 h with mouse, rat, or human plasma (Biowest) in the donor well of a rapid equilibrium dialysis plate (Thermo Fisher Scientific). PBS was placed in the acceptor well. To stop the assay, samples were collected from both wells, and an equal volume of plasma was added to the PBS sample, and vice versa. Proteins were then precipitated by adding three volumes of ice-cold methanol. Samples were mixed gently, kept at −20 °C for 30 min, and then stored at 4 °C overnight. The next day, the samples were centrifuged, and the supernatants were diluted with four volumes of 30% methanol in water. The samples were then analyzed using the Echo-MS system (SCIEX) with MRM transition monitoring, except for compound 3af, which was analyzed by LC–MS/MS as described in the plasma stability assay.

[3] = biological target: T2, intracellular Gal-3 in THP1 cells (Homo sapiens, UniProt P17931); test: Intracellular Gal-3 target engagement in THP1 cells (flow cytometry, MFI); format: cell-based; conditions: 2 h
T2 construct: Untreated cells served as negative and baseline controls representing maximum intracellular Gal-3 levels; endogenous in cells; host or cells: THP1 (monocyte-like or PMA-differentiated macrophage-like)
T2 sequence (P17931 whole entry): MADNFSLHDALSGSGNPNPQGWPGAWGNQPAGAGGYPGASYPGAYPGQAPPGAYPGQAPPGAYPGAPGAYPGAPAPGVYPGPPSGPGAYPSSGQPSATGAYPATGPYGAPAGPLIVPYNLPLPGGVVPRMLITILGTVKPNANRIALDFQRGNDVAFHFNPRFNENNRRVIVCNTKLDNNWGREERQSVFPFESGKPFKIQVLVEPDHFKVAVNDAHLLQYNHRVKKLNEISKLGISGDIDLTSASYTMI
Description: THP1 cells were used to assess the binding of the tested compounds to Gal-3. Cells were either maintained in suspension as undifferentiated monocyte-like cells or differentiated into macrophage-like cells by overnight treatment with phorbol 12-myristate 13-acetate (PMA, Sigma-Aldrich) at a final concentration of 10 ng/mL. […] Untreated cells served as negative and baseline controls representing maximum intracellular Gal-3 levels. Cells were then harvested and intracellularly stained either with galectin-3 monoclonal antibody eF660 (Invitrogen, Thermo Fisher Scientific) or a relevant isotype antibody (Invitrogen, Thermo Fisher Scientific) for flow cytometric analyses (see below). A dose-dependent decrease in Gal-3 signal upon compound treatment was used to assess intracellular target engagement expressed as median fluorescent intensity (MFI).
as §2

[4] = Cytotoxicity assay, panel of five human cell lines; format: cell-based; conditions: HEK293, HepG2, THP-1, Jurkat E6.1 and LX2 cells; summary in text across panel of five human cell lines
Description: as §1, §2

- IC50 ([1]; CSV supplement, unrounded mean, read-out: Gal3C_IC50_mean_uM): 57.7 nM
- Kd ([1]; CSV supplement, unrounded mean, read-out: Gal3C_Kd_mean_uM): 5.71 nM
- Kd ([1]; competitive fluorescence polarization, mean ± SD, read-out: Kd Gal-3C): 5.7 ± 2 nM
- IC50 ([1]; four-parameter logistic model, mean ± SD, read-out: IC50 Gal-3C): 58 ± 10 nM
- fraction unbound at 4 h, 10 μM [2]: 0.1
- intracellular Gal-3 signal (MFI), macrophage-like THP1 cells ([3]; (+)PMA differentiated THP1, 3.7–300 μM): concentration-dependent reduction
- intracellular Gal-3 signal (MFI), monocyte-like THP1 cells ([3]; (−)PMA undifferentiated THP1, 3.7–300 μM): concentration-dependent reduction
SMILES: CC(=O)N(c1cc(C(=O)O)cc2[nH]ccc12)[C@@H]1O[C@H](CO)[C@@H](S[C@@H]2O[C@H](CO)[C@H](O)[C@H](n3cc(-c4cccc(F)c4)nn3)[C@H]2O)[C@H](O)[C@H]1O [Compound 11, N-[4-S-(3-Deoxy-3-(4-(3-fluorophenyl)-1H-1,2,3-triazol-1-yl)-β-D-galactopyranosyl)-4-thio-β-D-glucopyranosyl]-N-(6-carboxy-1H-indol-4-yl)acetamide]
- CC50 at 24 h (Cytotoxicity assay, LX2): > 300000 nM
- CC50 at 24 h [4]: > 300000 nM
